# Test results: patent publication US20240277698A1, “METHODS OF USING ALDOSTERONE SYNTHASE INHIBITORS” (CINCOR PHARMA, INC., priority 2021, published 2024)
# Experiments:
# aldosterone synthase = target: T1, aldosterone synthase (Homo sapiens, UniProt P19099); assay: MAD study: urine aldosterone and tetrahydroaldosterone; assay type: in vivo; conditions: mean
# T1 construct: synthesized in the adrenal cortex by aldosterone synthase; endogenous in cells; host or cells: adrenal cortex of healthy human subjects (in vivo, oral dosing)
# T1 sequence (P19099 25-503): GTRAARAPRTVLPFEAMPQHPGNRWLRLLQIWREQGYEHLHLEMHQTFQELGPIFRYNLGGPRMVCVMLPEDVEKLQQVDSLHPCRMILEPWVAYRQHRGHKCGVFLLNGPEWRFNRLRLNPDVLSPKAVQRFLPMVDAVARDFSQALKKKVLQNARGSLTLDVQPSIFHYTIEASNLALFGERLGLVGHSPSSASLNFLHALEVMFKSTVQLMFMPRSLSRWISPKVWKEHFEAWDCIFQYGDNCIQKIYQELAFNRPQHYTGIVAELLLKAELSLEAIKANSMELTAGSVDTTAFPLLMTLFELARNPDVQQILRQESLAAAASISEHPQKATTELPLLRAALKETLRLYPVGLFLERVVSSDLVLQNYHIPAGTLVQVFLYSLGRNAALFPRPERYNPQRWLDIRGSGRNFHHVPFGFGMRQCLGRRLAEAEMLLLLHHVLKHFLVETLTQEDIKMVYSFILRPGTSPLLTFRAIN
# Source text: (§1) For each subject, the study consisted of: • A screening period of up to 28 days; • A 5-day inpatient run-in period during which subjects adhered to a controlled, standardized diet and underwent baseline PD assessments; • A 15-day inpatient treatment period, during which subjects received (R)-compound 1 or placebo once daily for 10 days while adhering to a controlled, standardized diet, followed by PK and PD sampling over an additional 5 days; and • A follow-up visit 3 days (1 day) after discharge from the clinical unit. • A cortisol stimulation test (Cohorts 1 and 2 only) and standing aldosterone assessment (all cohorts) were performed on Days 1 and 10. Serial blood samples for PK and PD were obtained prior to and at specified time points over 24 hours after dosing on Day 1 as well as prior to and at specified time points over 120 hours after dosing on Day 10. In addition, blood samples for PK were collected prior to dosing on Days 8 and 9. Urine for PK and PD measurements was collected over 24 hours starting just prior to dosing on Day 1 as well as over 120 hours starting just prior to dosing on Day 10.
# Urine PD measures included concentrations of • Aldosterone; • Cortisol (free and total); and • Tetrahydroaldosterone.
# For analysis, the urine PD concentrations were converted to total analyte amounts: Total amount (unit)=concentration (unit/volume) • urine volume
# CYP11B1 = target: T2, CYP11B1 (Homo sapiens, UniProt P15538); assay: MAD study: plasma cortisol (free and total) and 11-deoxycortisol, with and without Cortrosyn challenge; assay type: in vivo; conditions: for Plasma 11-deoxycortisol AUC0-12 estimated percent change from baseline, LS Mean / Plasma cortisol AUC0-12 estimated percent change from baseline, LS Mean: Day 1
# T2 construct: endogenous in cells; host or cells: adrenal cortex of healthy human subjects (in vivo, oral dosing)
# T2 sequence (P15538 25-503): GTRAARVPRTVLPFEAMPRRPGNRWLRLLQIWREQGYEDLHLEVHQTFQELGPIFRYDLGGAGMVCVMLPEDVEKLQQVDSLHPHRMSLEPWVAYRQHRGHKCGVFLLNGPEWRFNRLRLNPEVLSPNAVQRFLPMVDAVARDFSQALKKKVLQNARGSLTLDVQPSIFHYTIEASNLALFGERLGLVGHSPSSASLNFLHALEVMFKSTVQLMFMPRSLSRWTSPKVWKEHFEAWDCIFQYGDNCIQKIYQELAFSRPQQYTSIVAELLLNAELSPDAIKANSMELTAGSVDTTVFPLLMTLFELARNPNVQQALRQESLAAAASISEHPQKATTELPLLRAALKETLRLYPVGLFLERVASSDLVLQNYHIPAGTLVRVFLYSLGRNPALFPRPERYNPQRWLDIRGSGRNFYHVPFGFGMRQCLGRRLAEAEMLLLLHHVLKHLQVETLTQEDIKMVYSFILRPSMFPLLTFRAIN
# Source text: as §1
# These findings are consistent in the presence of Cortrosyn challenge (which occurred with the low salt treatment groups) and in the absence of the challenge (normal salt groups) (Table 13).
# [1] = 2.5 mg, low salt diet (Cortrosyn challenge)
smiles,measurement,setting,value
"CCC(=O)N[C@@H]1CCCc2c(-c3ccc4c(c3)CCC(=O)N4C)cncc21 [(R)-Compound 1, (R)—N-(4-(1-methyl-2-oxo-1,2,3,4-tetrahydroquinolin-6-yl)-5,6,7,8-tetrahydroisoquinolin-8-yl)propionamide]","Urine aldosterone (ng), Percent change from baseline (Day −1) to Day 1 0-24 hr","aldosterone synthase; 0.5 mg QD, normal salt diet",−23.7290%
same,"Urine aldosterone (ng), Percent change from baseline (Day −1) to Day 10 0-24 hr","aldosterone synthase; 0.5 mg QD, normal salt diet",4.2728%
same,"Urine tetrahydroaldosterone (ng), Percent change from baseline (Day −1) to Day 1 0-24 hr","aldosterone synthase; 0.5 mg QD, normal salt diet",−12.0171%
same,"Urine tetrahydroaldosterone (ng), Percent change from baseline (Day −1) to Day 10 0-24 hr","aldosterone synthase; 0.5 mg QD, normal salt diet",11.0511%
same,"Urine aldosterone (ng), Percent change from baseline (Day −1) to Day 1 0-24 hr","aldosterone synthase; 1.5 mg QD, normal salt diet",−67.6229%
same,"Urine aldosterone (ng), Percent change from baseline (Day −1) to Day 10 0-24 hr","aldosterone synthase; 1.5 mg QD, normal salt diet",−65.6831%
same,"Urine tetrahydroaldosterone (ng), Percent change from baseline (Day −1) to Day 1 0-24 hr","aldosterone synthase; 1.5 mg QD, normal salt diet",−47.0556%
same,"Urine tetrahydroaldosterone (ng), Percent change from baseline (Day −1) to Day 10 0-24 hr","aldosterone synthase; 1.5 mg QD, normal salt diet",−60.9034%
same,"Urine aldosterone (ng), Percent change from baseline (Day −1) to Day 1 0-24 hr","aldosterone synthase; 2.5 mg QD, low salt diet",−61.1877%
same,"Urine aldosterone (ng), Percent change from baseline (Day −1) to Day 10 0-24 hr","aldosterone synthase; 2.5 mg QD, low salt diet",−19.3985%
same,"Urine tetrahydroaldosterone (ng), Percent change from baseline (Day −1) to Day 1 0-24 hr","aldosterone synthase; 2.5 mg QD, low salt diet",−26.0540%
same,"Urine tetrahydroaldosterone (ng), Percent change from baseline (Day −1) to Day 10 0-24 hr","aldosterone synthase; 2.5 mg QD, low salt diet",−6.2967%
same,"Urine aldosterone (ng), Percent change from baseline (Day −1) to Day 1 0-24 hr","aldosterone synthase; 2.5 mg QD, normal salt diet",−71.7141%
same,"Urine aldosterone (ng), Percent change from baseline (Day −1) to Day 10 0-24 hr","aldosterone synthase; 2.5 mg QD, normal salt diet",−50.7592%
same,"Urine tetrahydroaldosterone (ng), Percent change from baseline (Day −1) to Day 1 0-24 hr","aldosterone synthase; 2.5 mg QD, normal salt diet",−59.6517%
same,"Urine tetrahydroaldosterone (ng), Percent change from baseline (Day −1) to Day 10 0-24 hr","aldosterone synthase; 2.5 mg QD, normal salt diet",−55.1771%
same,"Urine aldosterone (ng), Percent change from baseline (Day −1) to Day 1 0-24 hr","aldosterone synthase; 5.0 mg QD, low salt diet",−83.5768%
same,"Urine tetrahydroaldosterone (ng), Percent change from baseline (Day −1) to Day 1 0-24 hr","aldosterone synthase; 5.0 mg QD, low salt diet",−67.5905%
same,"Urine tetrahydroaldosterone (ng), Percent change from baseline (Day −1) to Day 10 0-24 hr","aldosterone synthase; 5.0 mg QD, low salt diet",−64.5164%
same,"Plasma total cortisol, percent change from Day −1 to Day 10, predose, mean","CYP11B1; 0.5 mg, normal salt diet",−2.83%
same,"Plasma total cortisol, percent change from Day −1 to Day 10, predose, mean","CYP11B1; 1.5 mg, normal salt diet",19.44%
same,"Plasma total cortisol, percent change from Day −1 to Day 10, predose, mean","CYP11B1; 2.5 mg, low salt diet",5.29%
same,"Plasma total cortisol, percent change from Day −1 to Day 10, predose, mean","CYP11B1; 2.5 mg, normal salt diet",−0.09%
same,"Plasma total cortisol, percent change from Day −1 to Day 10, predose, mean","CYP11B1; 5.0 mg, low salt diet",58.40%
same,"Plasma total cortisol, mean","CYP11B1; Day 1, 12 hours postdose, 0.5 mg, normal salt diet",28.14 ng/mL
same,"Plasma total cortisol, mean","CYP11B1; Day 1, 12 hours postdose, 1.5 mg, normal salt diet",25.32 ng/mL
same,"Plasma total cortisol, mean","CYP11B1; Day 1, 12 hours postdose, 2.5 mg, low salt diet",21.90 ng/mL
same,"Plasma total cortisol, mean","CYP11B1; Day 1, 12 hours postdose, 2.5 mg, normal salt diet",30.10 ng/mL
same,"Plasma total cortisol, mean","CYP11B1; Day 1, 12 hours postdose, 5.0 mg, low salt diet",19.43 ng/mL
same,"Plasma total cortisol, mean","CYP11B1; Day 1, predose, 0.5 mg, normal salt diet",84.15 ng/mL
same,"Plasma total cortisol, mean","CYP11B1; Day 1, predose, 1.5 mg, normal salt diet",97.61 ng/mL
same,"Plasma total cortisol, mean","CYP11B1; Day 1, predose, 2.5 mg, low salt diet",71.75 ng/mL
same,"Plasma total cortisol, mean","CYP11B1; Day 1, predose, 2.5 mg, normal salt diet",106.85 ng/mL
same,"Plasma total cortisol, mean","CYP11B1; Day 1, predose, 5.0 mg, low salt diet",68.24 ng/mL
same,"Plasma 11-deoxycortisol AUC0-12 estimated percent change from baseline, LS Mean","CYP11B1; 0.5 mg, normal salt diet",−0.57%
same,"Plasma cortisol AUC0-12 estimated percent change from baseline, LS Mean","CYP11B1; 0.5 mg, normal salt diet",−4.43%
same,"Plasma 11-deoxycortisol AUC0-12 estimated percent change from baseline, LS Mean","CYP11B1; 1.5 mg, normal salt diet",2.39%
same,"Plasma cortisol AUC0-12 estimated percent change from baseline, LS Mean","CYP11B1; 1.5 mg, normal salt diet",0.62%
same,"Plasma 11-deoxycortisol AUC0-12 estimated percent change from baseline, LS Mean",CYP11B1; [1],21.63%
same,"Plasma cortisol AUC0-12 estimated percent change from baseline, LS Mean",CYP11B1; [1],−3.91%
